Results on twelve compounds are retold here after ChEMBL document CHEMBL1149626, “Aza analogues of equol: novel ligands for estrogen receptor beta” (Bioorg Med Chem, 2007).

The structures appear in SMILES notation. pEC50, pIC50: −log10 of the molar value. Active and inactive are the calls of the source. No cut-off for these calls is given here.

Experiment [1] deals with Mus musculus. Nature of the experiment: Effect on bone mineral density in ovariectomized kunming mouse at 4 umol/kg, sc qd for 4 weeks. The class given is functional.
For experiment [2], the system named is Mus musculus. Nature of the experiment: Effect on uterine wet weight in ovariectomized kunming mouse at 4 umol/kg, sc qd for 4 weeks. The class given is functional.
Experiment [3] has as its target T1, Estrogen receptor beta (Homo sapiens, UniProt Q92731).
Description: Displacement of [3H]17beta-estradiol from recombinant human ERbeta
The target of experiment [4] is T2, Estrogen receptor (Homo sapiens) (UniProt P03372).
T2 sequence (whole entry): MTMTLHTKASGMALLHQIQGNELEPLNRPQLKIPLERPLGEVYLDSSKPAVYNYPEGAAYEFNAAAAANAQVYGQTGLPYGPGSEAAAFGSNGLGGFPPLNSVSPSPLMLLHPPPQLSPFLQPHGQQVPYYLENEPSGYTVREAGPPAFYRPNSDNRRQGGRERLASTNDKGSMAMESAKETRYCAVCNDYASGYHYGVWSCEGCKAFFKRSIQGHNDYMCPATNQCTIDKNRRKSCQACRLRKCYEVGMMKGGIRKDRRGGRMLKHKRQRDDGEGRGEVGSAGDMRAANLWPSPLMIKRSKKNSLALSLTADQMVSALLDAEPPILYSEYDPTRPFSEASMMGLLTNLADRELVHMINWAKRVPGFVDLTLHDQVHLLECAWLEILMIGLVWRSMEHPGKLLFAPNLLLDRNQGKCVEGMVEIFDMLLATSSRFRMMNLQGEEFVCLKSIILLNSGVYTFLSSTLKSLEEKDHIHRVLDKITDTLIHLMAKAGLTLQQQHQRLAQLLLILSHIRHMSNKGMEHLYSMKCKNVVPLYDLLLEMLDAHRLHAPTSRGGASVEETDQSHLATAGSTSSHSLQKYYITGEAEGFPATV
Description: (§1) Displacement of [3H]17beta-estradiol from recombinant human ERalpha

Experiment [5] has as its target T3, Estrogen receptor (Homo sapiens, UniProt P03372).
T3 sequence (P03372 whole entry): T2 sequence (whole entry)
Nature of the experiment: Agonist activity at human ERalpha expressed in yeast AH109 by yeast two hybrid assay. The class given is functional.

Experiment [6] deals with T1, Estrogen receptor beta. The experiment is described as follows: Agonist activity at human ERbeta expressed in yeast AH109 by yeast two hybrid assay. The class given is functional.
The species entered for experiment [7] is Homo sapiens. The experiment is described as follows: Selectivity for human ERbeta over human ERalpha.
The target in experiment [8] is T3, Estrogen receptor.
Description: as §1
The species entered for experiment [9] is Homo sapiens. Nature of the experiment: Selectivity ratio of EC50 for human ERalpha to EC50 for human ERbeta.
Experiment [10] addresses T3, Estrogen receptor. Nature of the experiment: Antagonist activity at ERalpha expressed in yeast AH109 assessed as inhibition of 17-beta-estradiol induced alpha-galactosidase activity. The class given is functional.

T1 sequence (Q92731 whole entry): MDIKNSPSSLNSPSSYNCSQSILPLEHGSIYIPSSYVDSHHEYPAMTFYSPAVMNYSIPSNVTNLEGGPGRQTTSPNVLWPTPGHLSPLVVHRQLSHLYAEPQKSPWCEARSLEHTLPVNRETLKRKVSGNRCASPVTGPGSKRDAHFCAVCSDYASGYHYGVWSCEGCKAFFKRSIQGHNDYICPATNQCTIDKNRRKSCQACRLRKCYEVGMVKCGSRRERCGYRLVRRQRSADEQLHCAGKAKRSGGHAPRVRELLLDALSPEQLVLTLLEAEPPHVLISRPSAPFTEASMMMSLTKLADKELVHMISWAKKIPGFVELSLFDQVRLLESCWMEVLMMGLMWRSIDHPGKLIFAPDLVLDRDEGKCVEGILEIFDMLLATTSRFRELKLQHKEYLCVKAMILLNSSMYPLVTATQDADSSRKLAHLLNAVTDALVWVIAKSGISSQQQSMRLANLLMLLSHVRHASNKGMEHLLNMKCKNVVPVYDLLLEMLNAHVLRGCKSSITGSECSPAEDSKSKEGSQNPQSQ

With `O=CN1CC(c2ccc(O)cc2)Cc2ccc(O)cc21` (stereo not drawn), the Activity was found to be 463 mg/cm3 in experiment [1] and 36.4 mg in [2].
For orientation: pIC50 means the IC50 on a negative log10 scale, so that one unit is a factor of ten. Consider `Oc1ccc(C2Cc3ccc(O)cc3NC2=S)cc1` (stereo not drawn), for which the Activity in experiment [1] is 483 mg/cm3; in [2], 38.7 mg. For the same compound, in experiment [3], the pIC50 was 5.31. In [4], the result was inactive.
A word on the pEC50: it is −log10 of the EC50, conventionally taken in molar units. Read a high pEC50 as a low EC50. Take `Oc1ccc(C2CNc3cc(O)ccc3C2)cc1` (stereo not drawn): the pEC50 in experiment [5] is less than 4.00; in experiment [6] it was 5.01.
In turn, `O=C(C1CC1)N1CC(c2ccc(O)cc2)Cc2ccc(O)cc21` (stereo not drawn) had a pIC50 in experiment [3] of 5.53. Besides, in experiment [4], the result was inactive.
For `CC(=O)N1CC(c2ccc(O)cc2)Cc2ccc(O)cc21` (stereo not drawn), the Activity in experiment [1] was found to be 451 mg/cm3; in [2], 29.1 mg.
Consider `CN1CC(c2ccc(O)cc2)Cc2ccc(O)cc21` (stereo not drawn), for which the Ratio IC50 in experiment [7] turned out to be 13.3. Moreover, the figures for the pEC50 in experiment [5] and in [6] were 4.82 and 6.52, respectively. Moreover, the Activity in experiment [1] is recorded as 455 mg/cm3; in experiment [2], 31.8 mg. The pIC50 in experiment [8] is 5.53; in [3], 6.66. The Ratio EC50 in [9] amounted to 50.
Take `CCCN1CC(c2ccc(O)cc2)Cc2ccc(O)cc21` (stereo not drawn): the Ratio IC50 in [7] stood at 17.9. This compound showed a pEC50 in experiment [6] of 5.32. The pIC50 in experiment [10] was 5.58; in experiment [8], 5.61; in [3], 6.85. Besides, the Activity in experiment [1] turned out to be 439 mg/cm3; in experiment [2], 28.3 mg.
Take `CCN1CC(c2ccc(O)cc2)Cc2ccc(O)cc21` (stereo not drawn): in experiment [7], the Ratio IC50 worked out at 17. Also, the pEC50 in [5] was 4.61; in [6] it was 6.24. Moreover, the Activity in experiment [1] stood at 454 mg/cm3; in [2], 31.7 mg. Further, the pIC50 in experiment [8] was 5.85; in [3], 7.08. Also, the Ratio EC50 in experiment [9] was determined as 41.
As to `CS(=O)(=O)N1CC(c2ccc(O)cc2)Cc2ccc(O)cc21` (stereo not drawn), the Ratio IC50 in experiment [7] was 61.5. The Activity in experiment [1] is 475 mg/cm3; in [2] it was 32.5 mg. Besides, the pIC50 in experiment [8] was 4.49; in experiment [3], 6.28.
`Oc1ccc(-c2cnc3cc(O)ccc3c2)cc1`: the pEC50 is less than 4.00 in experiment [5] and 4.43 in [6]. Also, the Activity came out at 430 mg/cm3 in [1] and 33.1 mg in [2].
Consider `Oc1ccc(C2Cc3ccc(O)cc3N(CC3CC3)C2)cc1` (stereo not drawn), for which the Ratio IC50 in experiment [7] is 7.1. In addition, the pEC50 in experiment [6] is 5.16. The pIC50 was 5.25 in experiment [10], 5.79 in [8] and 6.64 in [3]. The Activity in experiment [1] is recorded as 461 mg/cm3; in [2], 30.8 mg.
Take `O=C(c1ccc(OCCN2CCCCC2)cc1)c1c(-c2ccc(O)cc2)sc2cc(O)ccc12` [RALOXIFENE]: the Activity in experiment [1] is reported as 608 mg/cm3; in [2] it was 69.5 mg.
